Experimental data as given in the NIST ThermoML archive (doi:10.1016/j.jct.2010.04.013).

Test: mn = molality of the nth substance listed, in mol/kg
Details: 101 kPa, Liquid; for mass density: Vibrating tube method; for speed of sound: Pulse-echo method

[Mg+2].[O-][Cl+3]([O-])([O-])[O-].[O-][Cl+3]([O-])([O-])[O-] [magnesium perchlorate] + CO
Details	mass density, 283.15 K [kg/m3]	mass density, 288.15 K [kg/m3]	mass density, 293.15 K [kg/m3]	mass density, 298.15 K [kg/m3]	mass density, 303.15 K [kg/m3]	mass density, 308.15 K [kg/m3]	mass density, 313.15 K [kg/m3]	speed of sound, 298.15 K [m/s]
m1 = 0.05219	809.719	805.077	800.41	795.738	791.047	786.336	781.598	1109.9
m1 = 0.06927	812.714	808.079	803.422	798.76	794.077	789.377	784.647	1112.6
m1 = 0.08495	815.487	810.862	806.214	801.554	796.877	792.189	787.47	1115.2
m1 = 0.1015	818.369	813.747	809.112	804.466	799.801	795.117	790.405	1117.5
m1 = 0.1173	821.156	816.545	811.914	807.277	802.62	797.944	793.24	1120
m1 = 0.1339	824.082	819.477	814.852	810.224	805.578	800.91	796.216	1122.5
m1 = 0.1663	829.827	825.238	820.63	816.008	811.382	806.732	802.054	1127.2
m1 = 0.1999	835.828	831.249	826.659	822.059	817.443	812.807	808.147	1132.5
m1 = 0.2312	841.439	836.878	832.301	827.71	823.106	818.493	813.847	1137.2
m1 = 0.2628	847.212	842.663	838.096	833.522	828.937	824.333	819.703	1142
m1 = 0.2917	852.468	847.932	843.38	838.819	834.243	829.645	825.025	1146.5
m1 = 0.3234	858.304	853.784	849.245	844.698	840.139	835.559	830.96	1151.8

CO [methanol] + O=S(=O)([O-])C(F)(F)F.O=S(=O)([O-])C(F)(F)F.[Be+2]
m2 = 0
Details	mass density [kg/m3]
283.15 K	800.552
288.15 K	795.874
293.15 K	791.179
298.15 K	786.469
303.15 K	781.742
308.15 K	776.993
313.15 K	772.216

C[S+](C)[O-] [dimethyl sulfoxide] + [Ba+2].[O-][Cl+3]([O-])([O-])[O-].[O-][Cl+3]([O-])([O-])[O-]
m2 = 0
Details	mass density [kg/m3]
293.15 K	1100.21
298.15 K	1095.18
303.15 K	1090.16
313.15 K	1080.12
323.15 K	1070.08
333.15 K	1060.02

C[S+](C)[O-] [dimethyl sulfoxide] + [Ca+2].[O-][Cl+3]([O-])([O-])[O-].[O-][Cl+3]([O-])([O-])[O-]
m2 = 0
Details	mass density [kg/m3]
293.15 K	1100.21
298.15 K	1095.18
303.15 K	1090.16
313.15 K	1080.12
323.15 K	1070.08
333.15 K	1060.02
